# Test results taken from patent US10092582B2, “Cell mobilization agent containing lysophospholipid with retinoic acid introduced” (NOF CORPORATION, priority 2014, dated 2018).
# Columns and labels:
# [1] = tested on: monocytes and macrophages; settings: background art, non-patent documents 2, 3; cited from earlier work
# [2] = tested on: human acute monocytic leukaemia cell line (THP-1); experiment: Monocyte mobilization effect: THP-1 cell migration rate in Transwell; format: cell-based; settings: 3 hr; for cell migration rate (monocyte mobilization effect) compared to the control: 10 nM, FIG. 1, Ret-LysoPC of Example 1-2, Ret-PC of Comparative Example 1
# Description: A cell suspension of human acute monocytic leukaemia cell line (hereinafter to be referred to as “THP-1”) (manufactured by ATCC) was centrifuged, the supernatant was discarded, 0.1% bovine serum albumin (fatty acid-free, manufactured by SIGMA ALDRICH)-containing RPMI-1640 (manufactured by Life Technologies) was added to give a dispersion. It was centrifuged again, the supernatant was discarded to give cell pellets. 0.1% Bovine serum albumin-containing RPMI-1640 was added to adjust the cell density to 1×10^6 cells/ml. The cell suspension (100 μl/well) was added to Transwell (manufactured by Corning Incorporated, φ6.5 mm, pore size φ8.0 μm). The cells were incubated at 37° C., 5% CO2 for 30 min, and a measurement solution (all-trans retinoic acid (manufactured by Tokyo Chemical Industry Co., Ltd.) (hereinafter to be referred to as “RA”), Ret-PC of Comparative Example 1 or Ret-LysoPC of Example 1-2 dissolved in 0.1% bovine serum albumin-containing RPMI-1640 to 10 nM, and 0.1% bovine serum albumin-containing RPMI-1640 alone) was placed in the lower part of the multiple well plate (600 μl/well). After incubation at 37° C., 5% CO2 for 3 hr, the cell suspension in the multiple well plate was collected, cell density was measured by a hemacytometer and the cell migration rate was determined. The cell migration rate was defined as follows. cell migration rate (%)=(number of cells in multiple well plate)/(number of cells added to Transwell)
# A cell suspension of THP-1 was centrifuged, the supernatant was discarded, 0.1% bovine serum-containing RPMI-1640 was added to give a dispersion. It was centrifuged again, the supernatant was discarded to give cell pellets. 0.1% Bovine serum albumin-containing RPMI-1640 was added to adjust the cell density to 1×10^6 cells/ml. The cell suspension (100 μl/well) was added to Transwell (manufactured by Corning Incorporated, φ6.5 mm, pore size φ8.0 μm). The cells were incubated at 37° C., 5% CO2 for 30 min, and a measurement solution (Ret-LysoPC of Examples 1-1 and 1-2 dissolved in 0.1% bovine serum albumin-containing RPMI-1640 to 10 nM, and 0.1% bovine serum albumin-containing RPMI-1640 alone) was placed in the lower part of the multiple well plate (600 μl/well). After incubation at 37° C., 5% CO2 for 3 hr, the cell suspension in the multiple well plate was collected, cell density was measured by a hemacytometer and the cell migration rate was determined.
# Using human acute monocytic leukaemia cell line (THP-1) (manufactured by ATCC), a monocyte migration effect of each sample was evaluated. A cell suspension of THP-1 was centrifuged, the supernatant was discarded, 0.1% bovine serum-containing RPMI-1640 was added to give a dispersion. It was centrifuged again, the supernatant was discarded to give cell pellets. 0.1% Bovine serum albumin-containing RPMI-1640 was added to adjust the cell density to 1×10^6 cells/ml. The cell suspension (100 μl/well) was added to Transwell (manufactured by Corning Incorporated, φ6.5 mm, pore size φ8.0 μm). The cells were incubated at 37° C., 5% CO2 for 30 min, and a measurement solution (C18:0-LysoPC (COATSOME MC-80H; manufactured by NOF CORPORATION), Ret-LysoPC of Example 2 or S1P (manufactured by Toronto Research Chemicals) dissolved in 0.1% bovine serum albumin-containing RPMI-1640, and 0.1% bovine serum albumin-containing RPMI-1640 alone) was placed in the lower part of the multiple well plate ([…]). After incubation at 37° C., 5% CO2 for 3 hr, the cell suspension in the multiple well plate was collected, cell density was measured by a hemacytometer and the cell migration rate was determined.
# [3] = tested on: Human bone marrow-derived mesenchymal stem cell line (UE7T-13); experiment: Mesenchymal stem cell mobilization effect: UE7T-13 cell migration ratio in Transwell; format: cell-based; settings: 4 hr
# Description: Human bone marrow-derived mesenchymal stem cell line (UE7T-13) (manufactured by National Institute of Biomedical Innovation JCRB Cell Bank) was previously cultured in serum-free DMEM (manufactured by SIGMA ALDRICH) for 24 hr, and 0.25% trypsin/1 mM EDTA solution (manufactured by SIGMA ALDRICH) was added to give a dispersion. 10% Serum-containing DMEM (Powered by 10 medium; manufactured by GlycoTechnica Ltd.) was added, the cell suspension was centrifuged, the supernatant was discarded, 0.1% bovine serum albumin (fatty acid-free, manufactured by SIGMA ALDRICH)-containing DMEM (manufactured by SIGMA ALDRICH) was added to give a dispersion. It was centrifuged again, the supernatant was discarded to give cell pellets. 0.1% Bovine serum albumin-containing DMEM was added to adjust the cell density to 4×10^5 cells/mi. The cell suspension (100 μl/well) was added to Transwell (manufactured by Corning Incorporated, φ6.5 mm, pore size φ8.0 μm). The cells were incubated at 37° C., 5% CO2 for 30 min, and a measurement solution (Ret-LysoPC of Example 1-2 dissolved in 0.1% bovine serum albumin-containing DMEM to 10 nM, or 0.1% bovine serum albumin-containing DMEM alone) was placed in the lower part of the multiple well plate (600 μl/well). After incubation at 37° C., 5% CO2 for 4 hr, the supernatant in the insert was removed. The cells on the upper membrane side were removed, the cells on the lower membrane side were immobilized with 4% para-formaldehyde solution, and stained with crystalviolet solution. They were washed with water, dried, and the number of cells per one field was measured by microscopic observation. The cell migration ratio was defined as follows. cell migration ratio=(number of cell per one membrane field when each measurement solution was used)/(number of cells per one membrane field of control)
# The control refers to 0.1% bovine serum albumin-containing DMEM with no addition.
# Human bone marrow-derived mesenchymal stem cell line (UE7T-13) (manufactured by National Institute of Biomedical Innovation JCRB Cell Bank) was previously cultured in serum-free DMEM (manufactured by SIGMA ALDRICH) for 24 hr, and 0.25% trypsin/1 mM EDTA solution (manufactured by SIGMA ALDRICH) was added to give a dispersion. 10% Serum-containing DMEM (Powered by 10 medium; manufactured by GlycoTechnica Ltd.) was added, the cell suspension was centrifuged, the supernatant was discarded, 0.1% bovine serum albumin (fatty acid-free, manufactured by SIGMA ALDRICH)-containing DMEM (manufactured by SIGMA ALDRICH) was added to give a dispersion. It was centrifuged again, the supernatant was discarded to give cell pellets. […] They were washed with water, dried, and the number of cells per one field was measured by microscopic observation. […]
# [4] = 100 nM, FIG. 6, FIG. 7, Ret-LysoPC of Example 2
smiles,measurement,setting,value
"CCCCCCCCCCCCCCCCCC(=O)OC[C@@H](O)COP(=O)([O-])OCC[N+](C)(C)C [C18:0-LysoPC, 1-stearoyl-lysophosphocholine]",concentration at which a monocyte/macrophage mobilizing effect is exhibited,[1],≥ 10 µM
same,monocyte mobilization effect (cell migration rate),[2]; [4],absent
"CC1=C(/C=C/C(C)=C/C=C/C(C)=C/C(=O)OCC(COP(=O)([O-])OCC[N+](C)(C)C)OC(=O)/C=C(C)/C=C/C=C(C)/C=C/C2=C(C)CCCC2(C)C)C(C)(C)CCC1 (stereo not drawn) [Ret-PC, diretinoyl phosphocholine]",cell migration rate (monocyte mobilization effect) compared to the control,[2],did not show cell migration
"CCCCCCCCCCCCC/C=C/[C@@H](O)[C@@H](N)COP(=O)(O)O [Example S1P, sphingosine-1-phosphoric acid]",concentration at which mobilization of monocytes and macrophages is suppressed (acting on receptor 2),[1],≥ 100 nM
same,effective concentration range for mobilization of monocytes and macrophages,[1],around 10 nM
same,monocyte mobilization effect (cell migration rate),"[2]; 1 nM, FIG. 7",did not show a significant (p<0.05) monocyte mobilization effect
same,monocyte mobilization effect (cell migration rate),[2]; [4],did not show a significant (p<0.05) monocyte mobilization effect
same,mesenchymal stem cell mobilization effect (cell migration ratio),"[3]; 10 nM, FIG. 8",did not show a significant (p<0.05) mesenchymal stem cell mobilization effect
same,mesenchymal stem cell mobilization effect (cell migration ratio),"[3]; 100 nM, FIG. 8",did not show a significant (p<0.05) mesenchymal stem cell mobilization effect
"CC1=C(/C=C/C(C)=C/C=C/C(C)=C/C(=O)O)C(C)(C)CCC1 [RA, all-trans retinoic acid]",cell migration rate (monocyte mobilization effect) compared to the control,[2],did not show cell migration
"CC1=C(/C=C/C(C)=C/C=C/C(C)=C/C(=O)OCC(O)COP(=O)([O-])OCC[N+](C)(C)C)C(C)(C)CCC1 (stereo not drawn) [Ret-LysoPC, 1-retinoyl-sn-glycero-3-phosphocholine]",cell migration rate (monocyte mobilization effect) compared to the control,[2],significant (P<0.05) cell migration
same,monocyte mobilization effect (cell migration rate),[2]; [4],present
same,monocyte mobilization effect (cell migration rate),"[2]; any of 1-100 nM, FIG. 7, Ret-LysoPC of Example 2",showed a significant monocyte mobilization effect
same,cell migration ratio (mesenchymal stem cell mobilization effect) compared to the control,"[3]; 10 nM, FIG. 3, Ret-LysoPC of Example 1-2",significant cell migration
same,mesenchymal stem cell mobilization effect (cell migration ratio),"[3]; any of 1-100 nM, FIG. 8, Ret-LysoPC of Example 1-2",showed a significant mesenchymal stem cell mobilization effect
